Laboratory results published in patent publication US7018642B2 (The Procter & Gamble Company, priority 2001, dated 2006).
Where “and” joins values, the source holds several entries; their conditions need not be identical. Equal entries are not always repeated.

Columns and labels:
[1] = test system: P. fluorescens strain ATCC 13525; experiment: Biofilm prevention screen (96-well microplate, crystal violet); assay type: cell-based; conditions: Pseudomonas fluorescens, positive = prevention, negative = enhancement of biofilm formation, quadruplicate, read-out: average percentage reduction of biofilm formed relative to DMSO controls; for inhibition at 32 µM: ATCC13525, 32 μM; for inhibition at 160 µM: ATCC13525, 160 μM; for inhibition at 390 µM: ATCC13525, 390 μM
Method in brief: (§1)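 Each strain grown in its own modified medium (PAO1: R2A, no Mg^2+, 0.3–0.5% fructose, 3 μM ferrous ammonium sulfate; ATCC 13525: R2A with pyruvate; ATCC 35984: ¼ TSB, 1% fructose). Compounds at three final concentrations (e.g. 250–500, 160, 32 μM), shaken 16–26 h at 30° C. (pseudomonads) or 37° C. (S. epidermidis). Crystal violet A586; % biofilm reduction versus DMSO, quadruplicate means.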

[2] = test system: S. epidermidis strain ATCC 35984; experiment: as above; assay type: cell-based; conditions: Staphylococcus epidermidis, positive = prevention, negative = enhancement of biofilm formation, quadruplicate, read-out: average percentage reduction of biofilm formed relative to DMSO controls; for inhibition at 32 µM: ATCC35984, 32 μM; for inhibition at 160 µM: ATCC35984, 160 μM; for inhibition at 390 µM: ATCC35984, 390 μM
Method in brief: as §1

[3] = test system: S. epidermidis; experiment: 3-piece growth-chamber array (3P-GCA) biofilm growth test on bathroom tile; assay type: cell-based, Staphylococcus epidermidis; conditions: 72 hours; for optical density of extracted crystal violet (biofilm growth): S. epidermidis on standard white matte bathroom tile, two medium exchanges, replicate wells A, B, C, smaller = prevention, inoculated control 1.870-2.387; for biofilm prevention activity in 3P-GCA method (in words): S. epidermidis on white matte bathroom tile
Method: Wells in the block bottom are filled with 0.5–1 mL of the media described in Reference Example 1, and inoculated with 5–10 μL of overnight cultures of the bacterial strains described in Reference Example 1. The block bottom and top that contain a standard-size, white bathroom tile are then aligned and clamped together, and the assembly placed on a tissue culture rotator (VWR Scientific) set at a rotation speed of 1–3 rpm, or in a shaking incubator, at the appropriate temperature, for 24 hours. Optionally, the 1 mL liquid medium in each well is then replaced with fresh medium, and incubation continued for an additional 24 hours; this sequence of medium replacement and continued growth is done from 1–3 times, to generate biofilms of the desired thickness. After growth, the block bottom is removed, the liquid is removed and replaced with 200 μL of a 1% CV solution (in ˜10% ethanol). The block is then reassembled, re-positioned on the tissue culture rotator and incubated with the settings described above for 15–75 minutes to stain the biofilms. The block pieces are disassembled, and the top block that contains the tile surface is rinsed under a gentle stream of deionized water until all unbound dye is visibly removed. Optionally, any excessive dye adsorbed to the sides of the wells of the block bottom is removed using a test tube brush and a commonly available detergent formulation; this helps to reduce any background due to non-specific staining that can sometimes occur. As a faster alternative, the stained block bottom is simply interchanged with a new or pre-cleaned block bottom. Bound dye on the tile surface is then extracted by pipetting 0.5–1.0 mL of a solution of 1% sodium deoxycholate in 95% ethanol (and optionally 4–6 glass beads 1–3 mm in diameter to assist dye removal) into each well, reassembling the block top and bottom, and either repositioning on the tissue culture rotator followed by incubation using the settings described above for 0.5–2 hours, or alternatively, vortexing vigorously for 1–5 minutes. Subsequently, either undiluted or diluted (in ethanol) samples of extracted CV pipetted from the disassembled blocks are transferred to flat bottom, polystyrene microtiter plates and absorbances are measured in a microplate reader, and compared to controls, as described in Reference Example 1. […] Use of the 3P-GCA is the same as for the 2P-GCA described in Reference Example 5, except that when liquid growth media are being replaced in the wells of the block bottom, only one of the lid assemblies is removed. This arrangement has the advantage that if sensitive biofilms are being investigated, they are not disturbed at all during the entire method. If the biofilms being investigated are not sensitive to disturbance, then an additional advantage of the 3P-GCA is that it can be used to grow biofilms on both surfaces 30 of each lid assembly 90, especially if the 3P-GCA is mounted on a tissue culture rotator for biofilm growth, such that liquid growth media contacts both surfaces 30. […] Polypropylene block components are used. Data are reported as optical density measurements for 3 replicates of inoculated wells per compound tested, with 3 inoculated and three uninoculated control well replicates, corresponding to columns 1 (compound 32), 2 (compound 168), 3 (compound 226), 4 (inoculated control), and 5 (uninoculated control). Smaller numbers indicate prevention of biofilm growth.

| Compound | inhibition at 32 µM [1] [%] | inhibition at 160 µM [1] [%] | inhibition at 390 µM [1] [%] | inhibition at 32 µM [2] [%] | inhibition at 160 µM [2] [%] | inhibition at 390 µM [2] [%] | optical density of extracted crystal violet (biofilm growth) [3] | biofilm prevention activity in 3P-GCA method (in words) [3] |
| --- | --- | --- | --- | --- | --- | --- | --- | --- |
| CCCCCCCCCCNC(=O)[C@@H]1CCCN1 [Compound 32, L-proline n-decyl amide] | 9 | 55 | 95 | -3 | 100 | 97 | 0.175 and 0.244 and 0.207 | strong biofilm prevention activity |
| CCCCCCCCCCCCNC(=O)[C@@H]1CCCN1 [Compound 168] | 26 | 97 | 93 | 101 | 100 | 98 | 1.981 and 1.581 and 1.517 | much more modest effect |
| O=C(NCCCCCCCCCCCCNC(=O)[C@H]1CCCN1)[C@H]1CCCN1 [Compound 226, D-proline 1,12-diaminododecane bisamide] | -19 | 10 | 69 | 24 | 101 | 100 | 0.202 and 0.269 and 0.147 | strong biofilm prevention activity |
